Source: article PMC9989471, “The Key Roles of Mycobacterium tuberculosis FadD23 C-terminal Domain in Catalytic Mechanisms” (Frontiers in Microbiology, 2023)

Key:
FadD23 [1] = molecular target: T1, FadD23 (Mycobacterium tuberculosis, UniProt P9WQ47); assay: crystal structure ([…] Å), with palmitic acid bound; assay type: binding
T1 construct: full-length

CCCCCCCCCCCC(=O)O = assay: purified protein; details: ATP, Mg2+
FadD23 [2] = molecular target: T1, FadD23; assay: crystal structure ([…] Å), formed from ATP and palmitic acid; assay type: binding
FadD23 [3] = molecular target: T1, FadD23; assay: SPR; assay type: binding
FadD23 [4] = molecular target: T1, FadD23; assay: SPR; also crystal structure with AMP-PNP, MS, DSF and hydroxamate-MesG assay; assay type: binding

T1 sequence (P9WQ47 whole entry): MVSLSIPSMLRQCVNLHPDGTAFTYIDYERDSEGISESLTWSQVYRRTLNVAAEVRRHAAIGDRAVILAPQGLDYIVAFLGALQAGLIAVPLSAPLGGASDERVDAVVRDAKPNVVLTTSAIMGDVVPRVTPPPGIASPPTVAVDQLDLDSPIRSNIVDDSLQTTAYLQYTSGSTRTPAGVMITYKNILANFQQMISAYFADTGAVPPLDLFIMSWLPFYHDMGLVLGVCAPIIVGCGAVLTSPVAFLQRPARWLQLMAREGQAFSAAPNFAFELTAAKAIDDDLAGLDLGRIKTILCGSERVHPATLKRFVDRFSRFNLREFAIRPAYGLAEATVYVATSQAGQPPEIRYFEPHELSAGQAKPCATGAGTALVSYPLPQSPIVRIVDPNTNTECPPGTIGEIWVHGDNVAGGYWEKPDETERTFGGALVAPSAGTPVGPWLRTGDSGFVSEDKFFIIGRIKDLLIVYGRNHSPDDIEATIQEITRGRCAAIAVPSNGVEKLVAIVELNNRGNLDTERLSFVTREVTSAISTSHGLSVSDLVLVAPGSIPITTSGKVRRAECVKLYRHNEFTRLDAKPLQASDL

With Nc1ncnc2c1ncn2[C@@H]1O[C@H](CO[P@](=O)(O)O[P@](=O)(O)NP(=O)(O)O)[C@@H](O)[C@H]1O [AMP-PNP] the “crystal structure (2.25 Å), with palmitic acid bound” value (FadD23 [1]) was “In the AMP-PNP-FadD23 complex, the O27 of AMP-PNP interacted with NE of Arg460 through hydrogen bond”.

Compound “FadD23 (Mycobacterium tuberculosis H37Rv)” has a Km (CCCCCCCCCCCC(=O)O) of 33.56 ± 5.40 µM, a Vmax (CCCCCCCCCCCC(=O)O) of 0.00108 µmol/min and a kcat (CCCCCCCCCCCC(=O)O) of 0.00239 s⁻¹. It also gave a kcat/Km (CCCCCCCCCCCC(=O)O) of 71.2 M⁻¹ s⁻¹.

In the case of CCCCCCCCCCCCCCCC(=O)OP(=O)(O)OC[C@H]1O[C@@H](n2cnc3c(N)ncnc32)[C@H](O)[C@@H]1O [AMP-C16, hexadecanoyl adenylate], the “crystal structure (2.68 Å), formed from ATP and palmitic acid” value (FadD23 [2]) is reported as “FadD23 catalyzed the hydrolysis of ATP and connected AMP with palmitic acid to generate a molecule of AMP-C16”.

In the case of Nc1ncnc2c1ncn2[C@@H]1O[C@H](COP(=O)(O)OP(=O)(O)OP(=O)(O)O)[C@@H](O)[C@H]1O [ATP], the Kd (FadD23 [3]) is reported as about 1 µM.

CCCCCCCCCCCCCCCC(=O)O [palmitic acid] showed a Kd (FadD23 [4]) of 34.5 µM.
